From US8450357B2, “Compositions comprising an aryl pyrazole and/or a formamidine, methods and uses thereof” (Merial Limited, priority 2008, dated 2013)
Where two headings read alike, the source gives them in different places.

Legend:
Type in all cases: in vivo
[1] = tested on: adult brown dog ticks (Rhipicephalus sanguineus); experiment: Tick DMSO contact assay, Compound 1 with amitraz, Example 15; conditions: Rhipicephalus sanguineus
Protocol: Dosages were serially diluted using this same formulation.
Scintillation vials were treated with commercial and experimental compounds using the same procedure described in Example 12 above. The treated vials were used to determine the contact toxicity of compounds against adult brown dog ticks (Rhipicephalus sanguineus). The ticks were supplied by Ecto Services Inc. Henderson, N.C.
Unfed adult ticks were released into a metal pan and 10 living ticks were aspirated into each vial. […] Two replicates were tested for each treatment and the results were averaged. Ticks were stimulated by gently exhaling in the vials. Within the same time period, the addition of amitraz to an equal dosage of compound 1 increased mean mortality.

[2] = tested on: Rhipicephalus sanguineus ticks; experiment: Study C: tick efficacy of Compound 1 and fipronil alone and with amitraz in dogs
Protocol: (§1) The effectiveness of Compound 1 alone, fipronil alone, Compound 1 in combination with amitraz, or fipronil in combination with amitraz, when administered once as topical solutions to dogs against induced infestations of Rhipicephalus sanguineus and Ctenocephalides felis were determined in a third clinical study. Thirty-six beagles (18 males and 18 females) were selected for the study. Six replicates of 6 animals each were formed. Treatment Group 1 dogs were treated with a placebo. Treatment Groups 2, 3, 4, 5 and 6 received their respective treatments as a topical spot-on application once on Day 0. Each formulation included diethyleneglycol monoethyl ether (transcutol) as carrier. The Treatment Groups were: Treatment Group 2: fipronil at 0.1 mL/kg body weight (10 mg/kg); Treatment Group 3: Compound 1 at 0.1 mL/kg (10 mg/kg) body weight; Treatment Group 4: Compound 1 at 0.2 mL/kg (20 mg/kg) body weight; Treatment Group 5: Compound 1 at 0.1 mL/kg (10 mg/kg) body weight plus amitraz at 0.04 mL/kg (8 mg/kg) body weight; Treatment Group 6: fipronil at 0.1 mL/kg (10 mg/kg) body weight plus amitraz at 0.04 mL/kg (8 mg/kg) body weight. Treatment was applied by parting the hair and applying the formulation(s) directly onto the skin on one spot at the midline of the neck, except for Groups 4, 5 and 6 which were applied in approximately equal volumes on two spots, one spot between the base of the skull and the shoulder blades and the other at the front of the shoulder blades.
All dogs were infested with approximately 50 Rhipicephalus sanguineus ticks on Days −1, 7, 14, 21, 28, 35, 42, 49 and 56. Dogs were also infested with approximately 100 Ctenocephalides felis fleas on Days −1, 8, 15, 22, 29, 36, 43, 50 and 57. […] Tables 8 and 9 below show the % efficacy of formulations comprising fipronil at 0.1 ml/kg of body weight, Compound 1 at […], and fipronil and Compound 1 both at 10 ml/kg in combination with amitraz at 0.04 ml/kg of body weight compared to control group without active compounds. The percent reduction in flea counts of the treated groups with respect to the Control group over the study is shown in FIG. 14.

[3] = tested on: Ctenocephalides felis fleas; experiment: Study C: flea efficacy of Compound 1 and fipronil alone and with amitraz in dogs
Protocol: as §1
All dogs were infested with approximately 50 Rhipicephalus sanguineus ticks on Days −1, 7, 14, 21, 28, 35, 42, 49 and 56. Dogs were also infested with approximately 100 Ctenocephalides felis fleas on Days −1, 8, 15, 22, 29, 36, 43, 50 and 57. Ectoparasites were removed and counted on Day 2, approximately 48 hours after treatment and on Days 9, 16, 23, 30, 37, 44, 51 and 58 approximately 24 hours after flea infestation and 48 hours after tick infestation. Tables 8 and 9 below show the % efficacy of formulations comprising fipronil at 0.1 ml/kg of body weight, Compound 1 at […], and fipronil and Compound 1 both at […] in combination with amitraz at 0.04 ml/kg of body weight compared to control group without active compounds. The percent reduction in flea counts of the treated groups with respect to the Control group over the study is shown in FIG. 14.

Ctenocephalides felis = experiment: Study D: flea efficacy of Compound 1 and fipronil in cats
Protocol: A fourth clinical study was conducted to determine the efficacy of topically administered Compound 1 and fipronil against induced infections of Ctenocephalides felis in cats. Twenty four cats (17 males, 7 females) were included in the study. Six replicates of four cats each were formed based on decreasing Day −5 flea counts. Within replicates, cats were randomly allocated to Treatment Groups 1, 2, 3 or 4, respectively, by using a die: Group 1—untreated (vehicle control); Group 2—Compound 1 (10 mg/kg); Group 3—Compound 1 (20 mg/kg); Group 4—fipronil (10 mg/kg). Treatment was performed by topical administration of the formulations in the midline of the neck, between the base of the skull and the shoulder blades in a single spot after parting the hair. Animals were observed hourly for approximately four hours following treatment.
The cats were infested with approximately 100 Ct. felis fleas each during acclimation on Day −6 for allocation purposes, and on Days −1, 14, 21, 28, 35 and 42 for treatment efficacy evaluation purposes. The fleas were removed by combing each cat approximately 24 hours following each infestation except for the Day −1 infestation which was followed by flea removal and count on Day 1 (˜48 hours following infestation).

[4] = 6 h, read-out: 6 hour % Mortality Rep 1
[5] = 6 h, read-out: 6 hour % Mortality Rep 2
[6] = 6 h, read-out: 6 hour Avg. % Mortality
[7] = 24 h, read-out: 24 hour % Mortality Rep 1
[8] = 24 h, read-out: 24 hour % Mortality Rep 2
[9] = 24 h, read-out: 24 hour Avg. % Mortality
[10] = 48 h, read-out: 48 hour % Mortality Rep 1
[11] = 48 h, read-out: 48 hour % Mortality Rep 2
[12] = 48 h, read-out: 48 hour Avg. % Mortality

## Cc1ccc(/N=C/N(C)/C=N/c2ccc(C)cc2C)c(C)c1 [Amitraz, amitraz]
[1]; [4]
  mortality at 6.25 ppm: 0%
  mortality at 12.5 ppm: 0%
  mortality at 25 ppm: 0%
[1]; [5]
  mortality at 6.25 ppm: 0%
  mortality at 12.5 ppm: 0%
  mortality at 25 ppm: 0%
[1]; [6]
  mortality at 6.25 ppm: 0%
  mortality at 12.5 ppm: 0%
  mortality at 25 ppm: 0%
[1]; [7]
  mortality at 6.25 ppm: 0%
  mortality at 12.5 ppm: 0%
  mortality at 25 ppm: 0%
[1]; [8]
  mortality at 6.25 ppm: 0%
  mortality at 12.5 ppm: 0%
  mortality at 25 ppm: 0%
[1]; [9]
  mortality at 6.25 ppm: 0%
  mortality at 12.5 ppm: 0%
  mortality at 25 ppm: 0%
[1]; [10]
  mortality at 6.25 ppm: 0%
  mortality at 12.5 ppm: 0%
  mortality at 25 ppm: 10%
[1]; [11]
  mortality at 6.25 ppm: 0%
  mortality at 12.5 ppm: 0%
  mortality at 25 ppm: 10%
[1]; [12]
  mortality at 6.25 ppm: 0%
  mortality at 12.5 ppm: 0%
  mortality at 25 ppm: 10%

## N#Cc1nn(-c2c(Cl)cc(C(F)(F)F)cc2Cl)c(N)c1[S+]([O-])C(F)(F)F (stereo not drawn) [fipronil, 5-amino-3-cyano-1-(2,6-dichloro-4-trifluoromethylphenyl)-4-trifluoromethylsulfinylpyrazole]
[2]; Day 1, 10 mg/kg
  % Efficacy (Tick Efficacy): 88.6%
[2]; Day 2, 10 mg/kg
  % Efficacy (Tick Efficacy): 90.9%
[2]; Day 8, 10 mg/kg
  % Efficacy (Tick Efficacy): 99.4%
[2]; Day 9, 10 mg/kg
  % Efficacy (Tick Efficacy): 100%
[2]; Day 15, 10 mg/kg
  % Efficacy (Tick Efficacy): 100%
[2]; Day 16, 10 mg/kg
  % Efficacy (Tick Efficacy): 100%
[2]; Day 23, 10 mg/kg
  % Efficacy (Tick Efficacy): 98.8%
[2]; Day 30, 10 mg/kg
  % Efficacy (Tick Efficacy): 100%
[2]; Day 37, 10 mg/kg
  % Efficacy (Tick Efficacy): 99%
[2]; Day 44, 10 mg/kg
  % Efficacy (Tick Efficacy): 98.2%
[2]; Day 51, 10 mg/kg
  % Efficacy (Tick Efficacy): 92.8%
[2]; Day 58, 10 mg/kg
  % Efficacy (Tick Efficacy): 82.7%
[3]; Day 2, 10 mg/kg
  % Efficacy against fleas: 100%
[3]; Day 9, 10 mg/kg
  % Efficacy against fleas: 100%
[3]; Day 16, 10 mg/kg
  % Efficacy against fleas: 100%
[3]; Day 23, 10 mg/kg
  % Efficacy against fleas: 100%
[3]; Day 30, 10 mg/kg
  % Efficacy against fleas: 100%
[3]; Day 37, 10 mg/kg
  % Efficacy against fleas: 100%
[3]; Day 44, 10 mg/kg
  % Efficacy against fleas: 99.8%
[3]; Day 51, 10 mg/kg
  % Efficacy against fleas: 100%
[3]; Day 58, 10 mg/kg
  % Efficacy against fleas: 99.1%
Ctenocephalides felis; Day 1, 10 mg/kg
  % Efficacy against fleas: 97.96%
Ctenocephalides felis; Day 15, 10 mg/kg
  % Efficacy against fleas: 100%
Ctenocephalides felis; Day 22, 10 mg/kg
  % Efficacy against fleas: 100%
Ctenocephalides felis; Day 29, 10 mg/kg
  % Efficacy against fleas: 95.59%
Ctenocephalides felis; Day 36, 10 mg/kg
  % Efficacy against fleas: 99.24%
Ctenocephalides felis; Day 43, 10 mg/kg
  % Efficacy against fleas: 97.81%
